Several values for one entry are separate records, joined by “and”; a condition that tells them apart may be missing. Equal entries are not always repeated.
Key:
Experiment in all cases: KINOMEscan competition binding
Conditions in all cases: compound 10.0 µM
ACVR1B (human) = ACVR1B (human) (UniProt P36896)
ALK (human) = ALK (human) (UniProt Q9UM73)
AURKA (human) = AURKA (human) (UniProt O14965)
BRSK1 (human) = BRSK1 (human) (UniProt Q8TDC3)
CAMK2B (human) = CAMK2B (human) (UniProt Q13554)
CAMK2G (human) = CAMK2G (human) (UniProt Q13555)
CAMKK1 (human) = CAMKK1 (human) (UniProt Q8N5S9)
CDC42BPB (human) = CDC42BPB (human) (UniProt Q9Y5S2)
Sequence of CDC42BPB (human) (Q9Y5S2 whole entry, looked up): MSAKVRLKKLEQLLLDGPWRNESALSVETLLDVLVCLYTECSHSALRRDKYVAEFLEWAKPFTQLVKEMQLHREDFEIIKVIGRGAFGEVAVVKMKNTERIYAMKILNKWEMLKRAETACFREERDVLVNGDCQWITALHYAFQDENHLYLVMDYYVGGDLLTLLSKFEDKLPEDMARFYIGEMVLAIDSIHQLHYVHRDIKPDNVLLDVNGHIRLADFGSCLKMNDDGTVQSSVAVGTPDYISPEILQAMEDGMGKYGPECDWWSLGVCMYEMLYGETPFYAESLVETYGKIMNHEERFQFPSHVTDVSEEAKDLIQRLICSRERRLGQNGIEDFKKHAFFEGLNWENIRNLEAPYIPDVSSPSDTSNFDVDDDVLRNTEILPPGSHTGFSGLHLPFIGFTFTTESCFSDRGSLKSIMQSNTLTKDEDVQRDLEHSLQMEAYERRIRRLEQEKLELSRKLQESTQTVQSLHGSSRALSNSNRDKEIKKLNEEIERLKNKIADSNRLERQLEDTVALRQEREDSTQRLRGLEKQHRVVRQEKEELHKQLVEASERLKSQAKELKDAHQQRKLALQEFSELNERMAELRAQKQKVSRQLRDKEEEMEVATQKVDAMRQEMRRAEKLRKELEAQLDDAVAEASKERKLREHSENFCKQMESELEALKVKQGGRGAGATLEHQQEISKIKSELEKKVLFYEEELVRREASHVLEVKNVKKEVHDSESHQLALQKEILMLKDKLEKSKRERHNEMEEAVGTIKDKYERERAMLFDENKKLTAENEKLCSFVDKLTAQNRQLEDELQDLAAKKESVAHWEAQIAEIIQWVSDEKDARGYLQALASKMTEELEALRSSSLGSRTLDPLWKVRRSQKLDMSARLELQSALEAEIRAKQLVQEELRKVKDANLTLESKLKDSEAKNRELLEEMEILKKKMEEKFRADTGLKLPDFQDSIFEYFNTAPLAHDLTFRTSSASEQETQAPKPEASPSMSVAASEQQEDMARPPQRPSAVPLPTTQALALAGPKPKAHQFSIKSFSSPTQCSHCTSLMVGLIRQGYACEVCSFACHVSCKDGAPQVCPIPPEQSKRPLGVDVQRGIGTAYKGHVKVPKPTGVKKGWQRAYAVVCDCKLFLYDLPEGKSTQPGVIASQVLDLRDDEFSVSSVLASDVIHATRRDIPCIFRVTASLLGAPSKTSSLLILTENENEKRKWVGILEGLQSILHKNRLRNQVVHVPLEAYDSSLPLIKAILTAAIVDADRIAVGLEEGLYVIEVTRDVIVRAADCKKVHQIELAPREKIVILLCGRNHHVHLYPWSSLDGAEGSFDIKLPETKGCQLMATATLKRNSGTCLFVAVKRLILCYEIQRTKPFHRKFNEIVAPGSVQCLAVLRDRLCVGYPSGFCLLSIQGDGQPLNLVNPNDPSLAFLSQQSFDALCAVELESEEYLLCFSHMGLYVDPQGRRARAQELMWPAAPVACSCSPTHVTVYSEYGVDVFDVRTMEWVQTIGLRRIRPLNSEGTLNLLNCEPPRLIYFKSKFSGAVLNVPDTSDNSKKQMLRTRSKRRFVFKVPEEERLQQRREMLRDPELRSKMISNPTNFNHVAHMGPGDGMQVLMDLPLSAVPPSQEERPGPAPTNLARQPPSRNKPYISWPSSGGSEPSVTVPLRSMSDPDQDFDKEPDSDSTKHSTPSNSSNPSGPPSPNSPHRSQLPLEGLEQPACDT

CDC42BPG (human) = CDC42BPG (human) (UniProt Q6DT37)
CDK15 (human) = CDK15 (human) (UniProt Q96Q40)
CDK5 (human) = CDK5 (human) (UniProt Q00535)
CLK4 (human) = CLK4 (human) (UniProt Q9HAZ1)
CSF1R (human) = CSF1R (human) (UniProt P07333)
CSNK1A1L (human) = CSNK1A1L (human) (UniProt Q8N752)
EIF2AK2 (human) = EIF2AK2 (human) (UniProt P19525)
EPHA1 (human) = EPHA1 (human) (UniProt P21709)
EPHA4 (human) = EPHA4 (human) (UniProt P54764)
EPHB4 (human) = EPHB4 (human) (UniProt P54760)
FGFR3 (human) = FGFR3 (human) (UniProt P22607)
FLT3 (human) = FLT3 (human) (UniProt P36888)
[1] = biological target: JAK3 JH1 catalytic (human) (UniProt P52333)
Sequence of JAK3 JH1 catalytic (human) (P52333 whole entry, looked up): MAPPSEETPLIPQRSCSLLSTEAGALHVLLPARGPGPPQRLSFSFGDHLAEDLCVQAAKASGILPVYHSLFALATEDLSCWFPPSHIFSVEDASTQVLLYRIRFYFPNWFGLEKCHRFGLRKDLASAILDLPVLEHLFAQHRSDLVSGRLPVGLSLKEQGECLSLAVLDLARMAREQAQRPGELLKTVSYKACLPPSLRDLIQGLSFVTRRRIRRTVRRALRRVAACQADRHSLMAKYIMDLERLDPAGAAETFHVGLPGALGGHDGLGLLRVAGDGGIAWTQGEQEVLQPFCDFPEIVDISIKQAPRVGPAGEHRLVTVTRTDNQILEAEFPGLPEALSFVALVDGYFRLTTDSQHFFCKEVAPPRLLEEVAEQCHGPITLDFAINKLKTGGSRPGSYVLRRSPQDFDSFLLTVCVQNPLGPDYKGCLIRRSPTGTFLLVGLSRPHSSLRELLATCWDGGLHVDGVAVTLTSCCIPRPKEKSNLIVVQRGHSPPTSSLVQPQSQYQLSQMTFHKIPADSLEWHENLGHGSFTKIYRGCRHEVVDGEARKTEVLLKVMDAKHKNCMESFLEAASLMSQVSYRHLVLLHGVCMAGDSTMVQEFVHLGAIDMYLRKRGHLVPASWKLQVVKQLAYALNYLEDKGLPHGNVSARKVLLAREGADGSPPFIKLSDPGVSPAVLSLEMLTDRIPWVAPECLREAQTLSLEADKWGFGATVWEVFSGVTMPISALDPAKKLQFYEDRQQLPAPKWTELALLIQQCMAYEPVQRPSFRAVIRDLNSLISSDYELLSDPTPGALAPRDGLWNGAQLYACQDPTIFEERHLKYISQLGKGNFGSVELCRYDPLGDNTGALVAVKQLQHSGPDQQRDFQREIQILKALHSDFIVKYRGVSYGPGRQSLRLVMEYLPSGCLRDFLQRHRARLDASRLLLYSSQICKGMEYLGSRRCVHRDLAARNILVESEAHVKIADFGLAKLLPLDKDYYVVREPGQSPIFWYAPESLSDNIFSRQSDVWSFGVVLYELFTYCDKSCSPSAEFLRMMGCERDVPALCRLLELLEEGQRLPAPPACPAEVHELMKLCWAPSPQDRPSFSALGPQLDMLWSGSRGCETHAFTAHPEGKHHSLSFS

KDR (human) = KDR (human) (UniProt P35968)
LCK (human) = LCK (human) (UniProt P06239)
MAP3K12 (human) = MAP3K12 (human) (UniProt Q12852)
MAP3K7 (human) = MAP3K7 (human) (UniProt O43318)
MAP4K2 (human) = MAP4K2 (human) (UniProt Q12851)
PAK6 (human) = PAK6 (human) (UniProt Q9NQU5)
PIK3CD (human) = PIK3CD (human) (UniProt O00329)
PLK4 (human) = PLK4 (human) (UniProt O00444)
PRKAA2 (human) = PRKAA2 (human) (UniProt P54646)
PRKACB (human) = PRKACB (human) (UniProt P22694)
RIPK2 (human) = RIPK2 (human) (UniProt O43353)
RIPK4 (human) = RIPK4 (human) (UniProt P57078)
Sequence of RIPK4 (human) (P57078 whole entry, looked up): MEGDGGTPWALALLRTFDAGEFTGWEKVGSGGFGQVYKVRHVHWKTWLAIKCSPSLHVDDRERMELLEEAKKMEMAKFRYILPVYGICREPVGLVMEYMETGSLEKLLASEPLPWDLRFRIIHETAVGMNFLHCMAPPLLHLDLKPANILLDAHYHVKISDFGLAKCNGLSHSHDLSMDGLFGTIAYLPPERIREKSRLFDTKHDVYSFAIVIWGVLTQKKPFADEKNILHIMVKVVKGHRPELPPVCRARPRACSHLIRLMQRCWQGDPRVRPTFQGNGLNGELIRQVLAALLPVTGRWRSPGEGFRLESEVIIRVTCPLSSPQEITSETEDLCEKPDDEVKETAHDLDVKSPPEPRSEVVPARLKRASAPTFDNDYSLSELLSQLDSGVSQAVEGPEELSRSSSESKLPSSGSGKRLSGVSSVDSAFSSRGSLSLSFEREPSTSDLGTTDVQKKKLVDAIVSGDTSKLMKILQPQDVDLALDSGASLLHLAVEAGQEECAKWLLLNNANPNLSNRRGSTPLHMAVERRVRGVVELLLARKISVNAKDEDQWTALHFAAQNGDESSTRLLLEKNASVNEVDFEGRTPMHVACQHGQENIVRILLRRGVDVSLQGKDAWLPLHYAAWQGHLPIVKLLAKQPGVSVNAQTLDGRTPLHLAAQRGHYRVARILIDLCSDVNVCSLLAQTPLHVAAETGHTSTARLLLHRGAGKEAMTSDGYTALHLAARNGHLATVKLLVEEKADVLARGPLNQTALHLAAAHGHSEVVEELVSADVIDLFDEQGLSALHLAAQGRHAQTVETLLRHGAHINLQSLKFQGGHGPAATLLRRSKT

RPS6KA1 KD2 (human) = RPS6KA1 KD2 (human) (UniProt Q15418)
SIK2 (human) = SIK2 (human) (UniProt Q9H0K1)
SRPK1 (human) = SRPK1 (human) (UniProt Q96SB4)
STK17A (human) = STK17A (human) (UniProt Q9UEE5)
[2] = biological target: TYK2 JH1 catalytic (human) (UniProt P29597)
Sequence of TYK2 JH1 catalytic (human) (P29597 whole entry, looked up): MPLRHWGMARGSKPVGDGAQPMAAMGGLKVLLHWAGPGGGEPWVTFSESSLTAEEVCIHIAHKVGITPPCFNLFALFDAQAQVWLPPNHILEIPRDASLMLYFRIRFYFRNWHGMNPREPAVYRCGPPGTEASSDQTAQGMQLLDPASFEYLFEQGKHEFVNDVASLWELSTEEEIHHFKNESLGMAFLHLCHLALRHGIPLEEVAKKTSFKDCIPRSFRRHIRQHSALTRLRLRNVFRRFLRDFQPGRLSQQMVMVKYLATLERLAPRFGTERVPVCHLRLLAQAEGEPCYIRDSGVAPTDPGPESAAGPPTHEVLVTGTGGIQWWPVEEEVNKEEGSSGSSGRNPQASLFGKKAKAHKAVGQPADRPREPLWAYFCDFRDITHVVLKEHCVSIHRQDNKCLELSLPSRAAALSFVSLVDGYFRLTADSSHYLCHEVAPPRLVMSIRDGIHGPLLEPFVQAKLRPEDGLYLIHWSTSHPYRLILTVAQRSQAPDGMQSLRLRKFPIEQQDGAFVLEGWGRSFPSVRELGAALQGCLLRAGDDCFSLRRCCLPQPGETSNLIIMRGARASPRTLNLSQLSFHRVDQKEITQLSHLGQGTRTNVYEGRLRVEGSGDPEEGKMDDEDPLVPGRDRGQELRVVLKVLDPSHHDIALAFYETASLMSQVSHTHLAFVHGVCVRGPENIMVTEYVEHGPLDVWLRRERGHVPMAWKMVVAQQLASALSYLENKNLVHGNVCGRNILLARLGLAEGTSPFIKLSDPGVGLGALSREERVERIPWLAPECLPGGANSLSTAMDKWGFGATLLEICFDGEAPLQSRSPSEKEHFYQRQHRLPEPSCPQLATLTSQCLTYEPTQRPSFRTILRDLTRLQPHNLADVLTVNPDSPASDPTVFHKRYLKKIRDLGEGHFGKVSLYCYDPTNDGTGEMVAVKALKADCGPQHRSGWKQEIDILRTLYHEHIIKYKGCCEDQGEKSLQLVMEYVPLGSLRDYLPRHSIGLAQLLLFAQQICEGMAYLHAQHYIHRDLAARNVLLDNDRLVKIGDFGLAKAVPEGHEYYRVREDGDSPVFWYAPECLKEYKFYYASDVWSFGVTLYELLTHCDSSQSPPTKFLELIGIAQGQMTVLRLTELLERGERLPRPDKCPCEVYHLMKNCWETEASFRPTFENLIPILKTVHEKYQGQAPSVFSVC

[3] = biological target: TYK2 JH2 pseudokinase (human) (UniProt P29597)
Sequence of TYK2 JH2 pseudokinase (human) (P29597 whole entry, looked up): as above

ULK2 (human) = ULK2 (human) (UniProt Q8IYT8)

| SMILES | kinase still bound, per cent of control (ACVR1B (human)) [%] | kinase still bound, per cent of control (ALK (human)) [%] | kinase still bound, per cent of control (AURKA (human)) [%] | kinase still bound, per cent of control (BRSK1 (human)) [%] | kinase still bound, per cent of control (CAMK2B (human)) [%] | kinase still bound, per cent of control (CAMK2G (human)) [%] | kinase still bound, per cent of control (CAMKK1 (human)) [%] | kinase still bound, per cent of control (CDC42BPB (human)) [%] | kinase still bound, per cent of control (CDC42BPG (human)) [%] | kinase still bound, per cent of control (CDK15 (human)) [%] | kinase still bound, per cent of control (CDK5 (human)) [%] | kinase still bound, per cent of control (CLK4 (human)) [%] | kinase still bound, per cent of control (CSF1R (human)) | kinase still bound, per cent of control (CSNK1A1L (human)) [%] | kinase still bound, per cent of control (EIF2AK2 (human)) [%] | kinase still bound, per cent of control (EPHA1 (human)) [%] | kinase still bound, per cent of control (EPHA4 (human)) [%] | kinase still bound, per cent of control (EPHB4 (human)) [%] | kinase still bound, per cent of control (FGFR3 (human)) [%] | kinase still bound, per cent of control (FLT3 (human)) | also measured |
| --- | --- | --- | --- | --- | --- | --- | --- | --- | --- | --- | --- | --- | --- | --- | --- | --- | --- | --- | --- | --- | --- |
| C=CC(=O)Nc1cccc(Nc2nc(N[C@H]3CC[C@H](N(C)C)CC3)nc3c2ncn3C(C)C)c1 | 87 | 21 | 100 | 88 | 80 | 76 | 40 | 76 | 84 | 100 | 80 | 5.1 | 52% | 1.5 | 78 | 72 | 64 | 60 | 68 | 2.6% | kinase still bound, per cent of control [1]: 89%; kinase still bound, per cent of control (KDR (human)): 96%; kinase still bound, per cent of control (LCK (human)): 38%; kinase still bound, per cent of control (MAP3K12 (human)): 71%; kinase still bound, per cent of control (MAP3K7 (human)): 21%; kinase still bound, per cent of control (MAP4K2 (human)): 31%; kinase still bound, per cent of control (PAK6 (human)): 47%; kinase still bound, per cent of control (PIK3CD (human)): 92%; kinase still bound, per cent of control (PLK4 (human)): 85%; kinase still bound, per cent of control (PRKAA2 (human)): 100%; kinase still bound, per cent of control (PRKACB (human)): 100%; kinase still bound, per cent of control (RIPK2 (human)): 100%; kinase still bound, per cent of control (RIPK4 (human)): 72%; kinase still bound, per cent of control (RPS6KA1 KD2 (human)): 67%; kinase still bound, per cent of control (SIK2 (human)): 69%; kinase still bound, per cent of control (SRPK1 (human)): 52%; kinase still bound, per cent of control (STK17A (human)): 100%; kinase still bound, per cent of control [2]: 34%; kinase still bound, per cent of control [3]: 100%; kinase still bound, per cent of control (ULK2 (human)): 2% |
| N#Cc1c(NC(=O)c2cccc3ccccc23)sc2c1CCCC2 | 100 | 100 | 100 | 100 | 90 | 94 | 91 | 80 | 81 | 69 | 100 | 84 | 100% and 84% | 66 | 100 | 85 | 100 | 100 | 100 | 94% and 87% | kinase still bound, per cent of control [1]: 98%; kinase still bound, per cent of control (KDR (human)): 96%; kinase still bound, per cent of control (LCK (human)): 85%; kinase still bound, per cent of control (MAP3K12 (human)): 79%; kinase still bound, per cent of control (MAP3K7 (human)): 82%; kinase still bound, per cent of control (MAP4K2 (human)): 100%; kinase still bound, per cent of control (PAK6 (human)): 88%; kinase still bound, per cent of control (PIK3CD (human)): 100%; kinase still bound, per cent of control (PLK4 (human)): 82%; kinase still bound, per cent of control (PRKAA2 (human)): 84%; kinase still bound, per cent of control (PRKACB (human)): 80%; kinase still bound, per cent of control (RIPK2 (human)): 58%; kinase still bound, per cent of control (RIPK4 (human)): 96%; kinase still bound, per cent of control (RPS6KA1 KD2 (human)): 78%; kinase still bound, per cent of control (SIK2 (human)): 78%; kinase still bound, per cent of control (SRPK1 (human)): 100%; kinase still bound, per cent of control (STK17A (human)): 100%; kinase still bound, per cent of control [2]: 100%; kinase still bound, per cent of control [3]: 100%; kinase still bound, per cent of control (ULK2 (human)): 98% |
| Cc1ccc(NC(=O)c2cccc(C(C)(C)C#N)c2)cc1Nc1ccc2ncn(C)c(=O)c2c1 | 97 | 93 | 100 | 91 | 100 | 100 | 34 | 100 | 98 | 100 | 100 | 100 | 0.1% | 100 | 75 | 10 | 0 | 0.25 | 100 | 61% | kinase still bound, per cent of control [1]: 87%; kinase still bound, per cent of control (KDR (human)): 2.3%; kinase still bound, per cent of control (LCK (human)): 0.7%; kinase still bound, per cent of control (MAP3K12 (human)): 74%; kinase still bound, per cent of control (MAP3K7 (human)): 17%; kinase still bound, per cent of control (MAP4K2 (human)): 62%; kinase still bound, per cent of control (PAK6 (human)): 84%; kinase still bound, per cent of control (PIK3CD (human)): 99%; kinase still bound, per cent of control (PLK4 (human)): 87%; kinase still bound, per cent of control (PRKAA2 (human)): 100%; kinase still bound, per cent of control (PRKACB (human)): 100%; kinase still bound, per cent of control (RIPK2 (human)): 7%; kinase still bound, per cent of control (RIPK4 (human)): 98%; kinase still bound, per cent of control (RPS6KA1 KD2 (human)): 87%; kinase still bound, per cent of control (SIK2 (human)): 77%; kinase still bound, per cent of control (SRPK1 (human)): 100%; kinase still bound, per cent of control (STK17A (human)): 100%; kinase still bound, per cent of control [2]: 85%; kinase still bound, per cent of control [3]: 100%; kinase still bound, per cent of control (ULK2 (human)): 100% |

Reference: the kinase profiling compilation of Christmann-Franck et al. (2016)
